Source: patent US7247756B2, “1,4-disubstituted benzenes as insecticides” (Bayer CropScience AG, priority 2000, dated 2007)
Where “and” joins values, the source holds several entries; their conditions need not be identical. Identical values can stand only once.

Tested on: tobacco budworm (Heliothis virescens [Fabricius])
Test: surface-treated diet test against tobacco budworm
Type: in vivo
Conditions: second instar larvae, five-day exposure
Protocol: Candidate insecticides are evaluated for activity against the tobacco budworm (Heliothis virescens [Fabricius]) in a surface-treated diet test.
In this test one mL of molten (65–70° C.) wheat germ-based artificial diet is pipetted into each well of a four by six (24 well) multi-well plate (ID#430345-15.5 mm dia.×17.6 mm deep; Corning Costar Corp., One Alewife Center, Cambridge, Mass. 02140). The diet is allowed to cool to ambient temperature before treatment with candidate insecticide.
For a determination of insecticidal activity, solutions of the candidate insecticides are prepared for testing using a Packard 204DT Multiprobe® Robotic System (Packard Instrument Company, 800 Research Parkway, Meriden, Conn. 06450), in which the robot first dilutes a standard 50 millimolar DMSO solution of candidate insecticide with a 1:1 water/acetone solution (V/V) in a ratio of 1:7 stock solution to water/acetone. The robot subsequently pipettes 40 microliters of the so-prepared solution onto the surface of the diet in each of three wells in the 24 multi-well plate. The process is repeated with solutions of seven other candidate insecticides. Once treated, the contents of the multi-well plate are allowed to dry, leaving 0.25 millimoles of candidate insecticide on the surface of the diet, or a concentration of 0.25 millimolar. Appropriate untreated controls containing only DMSO on the diet surface are also included in this test.
For evaluations of the insecticidal activity of a candidate insecticide at varying rates of application, the test is established as described above using sub-multiples of the standard 50 millimolar DMSO solution of candidate insecticide. For example, the standard 50 millimolar solution is diluted by the robot with DMSO to give 5, 0.5, 0.05, 0.005, 0.0005 millimolar, or more dilute solutions of the candidate insecticide. In these evaluations there are six replicates of each rate of application placed on the surface of the diet in the 24 multi-well plate, for a total of four rates of application of candidate insecticide in each plate.
In each well of the test plate is placed one second instar tobacco budworm larvea, each weighing approximately five milligrams. After the larvae are placed in each well, the plate is sealed with clear polyfilm adhesive tape. The tape over each well is perforated to ensure an adequate air supply. The plates are then held in a growth chamber at 25° C. and 60% relative humidity for five days (light 14 hours/day).
After the five-day exposure period insecticidal activity for each rate of application of candidate insecticide is assessed as percent inhibition of insect weight relative to the weight of insects from untreated controls, and percent mortality when compared to the total number of insects infested.

[1] = rate of application 4.6 (negative log of the molar concentration of test compound in the diet)
[2] = rate of application 5.6 (negative log of the molar concentration of test compound in the diet)
[3] = rate of application 6.6 (negative log of the molar concentration of test compound in the diet)
[4] = rate of application 3.6 (negative log of the molar concentration of test compound in the diet)

| Compound | Percent Growth Inhibition [2] [%] | Percent Growth Inhibition [3] | also measured |
| --- | --- | --- | --- |
| CCN(CC)CCOc1ccc(COCc2ccc(Cl)c3ccccc23)cc1 [Compound 8, (2-(4-(((4-chloronaphthyl)methoxy)methyl)phenoxy)ethyl)diethylamine] | – | – | Percent Growth Inhibition [1]: 11% |
| CCN(CC)CCOc1ccc(CNc2ccc(Cl)c3ccccc23)cc1 [Compound 84, (2-(4-(((4-chloronaphthyl)amino)methyl)phenoxy)ethyl)diethylamine] | 11 | – | – |
| CC1CCCC(C)N1CCOc1ccc(COc2ccc(Cl)c3ccccc23)cc1 (stereo not drawn) [Compound 106, 1-(2-(2,6-dimethylpiperidyl)ethoxy)-4-((4-chloronaphthyloxy)methyl)benzene] | – | 35% | – |
| CCN(CC)CCOc1ccc(COc2ccc(Cl)c3cc(Cl)ccc23)cc1 [Compound 216, (2-(4-((4,6-dichloronaphthyloxy)methyl)phenoxy)ethyl)diethylamine] | – | 1% | – |
| CCN(CC)CCOc1ccc(COc2cccc3c(Cl)c(Cl)ccc23)cc1 [Compound 223, (2-(4-((5,6-dichloronaphthyloxy)methyl)phenoxy)ethyl)diethylamine] | – | 63% | – |
| CCN(CC)CCOc1ccc(CNc2ccc(Cl)c3ccccc23)cc1OC [Compound 263, (2-(4-(((4-chloronaphthyl)amino)methyl)-2-methoxyphenoxy)ethyl)diethylamine] | 26 | – | – |
| CCN(CC)CCOc1ccc(COc2ccc(Cl)c(Cl)c2Cl)cc1 [Compound 308, diethyl(2-(4-((2,3,4-trichlorophenoxy)methyl)phenoxy)ethyl)amine] | 18 | – | – |
| CCN1CCN(c2ccc(COc3cccc4c(Cl)c(Cl)ccc34)cc2)CC1 [Compound 355, 1,2-dichloro-5-{[4-(4-ethylpiperazinyl)phenyl]methoxy}naphthalene] | 96 | −2% | Percent Growth Inhibition [4]: 100%; Percent Mortality [4]: 100%; Percent Growth Inhibition [1]: 100%; Percent Mortality [1]: 100%; Percent Mortality [2]: 17% |
| amino(2-(4-((5,6-dichloronaphthyloxy)methyl)phenoxy)ethyl)diethyl-1-one [Compound 183] | – | 28% and 18% | – |
